Measurements: article PMC12687449, “Membrane disruption attenuates agonist potency in prostanoid receptors” (Biochemical Journal, 2025)
Each block holds one compound with its values, some of them ahead of it.

How the values were obtained:
S1P3 receptor = S1P3 receptor (Homo sapiens, UniProt Q99500); experiment: BRET-based G protein activation, wildtype S1P3 receptor + Gαq biosensor in HEK293T cells; type: cell-based
Description: […] Afterward, the cells were washed five times for single-cell FRET measurements or three times for BRET measurements with internal buffer.
Concentration-response curves were fitted in GraphPad Prism 8 using nonlinear regression (log(agonist) vs. response - variable slope (four parameters)) with the hillslope set to 1, the bottom constrained to 0 and the top to 1 using the following equation: […]

[1] = target: EP4 receptor conformation sensor (Homo sapiens, UniProt P35408); experiment: FRET-based EP4 receptor conformation sensor stably expressed in HEK293 cells (intact, saponin-permeabilized, membrane fragments); type: cell-based
Sequence of EP4 receptor conformation sensor (P35408 1-332 limits assumed): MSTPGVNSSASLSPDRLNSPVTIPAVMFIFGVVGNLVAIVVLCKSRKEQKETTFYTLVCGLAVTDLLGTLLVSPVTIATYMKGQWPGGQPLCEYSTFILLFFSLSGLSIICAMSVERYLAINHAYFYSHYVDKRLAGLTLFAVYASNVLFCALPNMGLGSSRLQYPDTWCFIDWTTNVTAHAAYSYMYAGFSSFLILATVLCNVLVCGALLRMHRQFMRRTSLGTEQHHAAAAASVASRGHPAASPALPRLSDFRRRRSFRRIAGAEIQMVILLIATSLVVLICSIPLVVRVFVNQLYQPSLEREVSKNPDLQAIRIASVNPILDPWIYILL
Description: (§1) The cells were washed once with external buffer and subsequently incubated 2 minutes for single-cell FRET measurements or 10 minutes for BRET measurements in 0.05% saponin (AppliChem, Darmstadt, Germany) dissolved in internal buffer. Afterward, the cells were washed five times for single-cell FRET measurements or three times for BRET measurements with internal buffer.
(§2) HEK293 cells stably expressing the EP4 receptor, IP receptor, or DP2 receptor conformation sensor were seeded on 15 cm Ø dishes and grown until optical confluence. The cells were washed once with Dulbecco’s PBS (Capricorn Scientific GmbH), without Ca & Mg and Phenol Red (phosphate-buffered saline, PBS). After adding 5 ml PBS to the cells, the dish was treated with liquid nitrogen until the solution was visibly frozen. These dishes were stored at −80°C until the measurements were carried out. On the day of the measurement, the dishes were removed from the freezer and stored at room temperature until the buffer solution had thawed. The material was collected with a cell scraper and centrifuged (5000 rpm/5 min). The supernatant was discarded, the pellet containing the membrane fragments was resuspended with external buffer containing 0.1% BSA and seeded on microplates. […]

[2] = target: T1, EP2 receptor conformation sensor (Homo sapiens, UniProt P43116, DEL238-250); experiment: FRET-based EP2 receptor conformation sensor, single-cell measurements in HEK293 cells; settings: saponin-permeabilized cells, 3000 nM PGE2, reference 20 µM PGE2
T1 construct: mT2 insertion and truncation after Q349; expressed in transfected cells
T1 sequence (P43116 with tags, fused parts or gaps DEL238-250): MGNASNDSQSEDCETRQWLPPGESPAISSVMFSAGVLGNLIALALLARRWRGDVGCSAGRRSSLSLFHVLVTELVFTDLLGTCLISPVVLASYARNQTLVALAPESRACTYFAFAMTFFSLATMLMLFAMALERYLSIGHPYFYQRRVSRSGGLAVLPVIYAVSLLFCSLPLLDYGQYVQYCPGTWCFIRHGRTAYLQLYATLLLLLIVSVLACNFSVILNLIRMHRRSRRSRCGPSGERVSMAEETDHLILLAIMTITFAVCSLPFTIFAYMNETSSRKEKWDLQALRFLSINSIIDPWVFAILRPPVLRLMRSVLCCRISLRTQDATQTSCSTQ
Description: as §1
The coverslips loaded with stably transfected HEK293 cells containing either the FFA3 receptor, α2A-AR CAM, or ETB receptor conformation sensors were clamped in an Attofluor^TM cell chamber and were washed once with external buffer. Afterward, they were side by side either permeabilized or directly measured at room temperature by the use of an inverted microscope (Elipse Ti2, Nikon, Düsseldorf, Germany), equipped with a 100× oil immersion objective (Plan Apo λ 100 x/1.45 oil ∞/0.17 WD 0.13, Nikon, Düsseldorf, Germany) and dual excitation and dual emission imaging capabilities. […] The fluorescence emission of mT2 and the respective YFP variant was simultaneously collected by a second beamsplitter (488, Chroma, Bellows Falls, Vermont, U.S.A.) and two emission filters (mT2: 474/27, Chroma; YFP: 544/23, Chroma). […] For all single-cell FRET experiments, cells were prospectively selected based on a continuous plasma-membrane fluorescence rim and appropriate fluorescence distribution to ensure a PM-dominant receptor signal. […]

[3] = target: T2, DP2 receptor conformation sensor (Homo sapiens, UniProt Q9Y5Y4); experiment: FRET-based DP2 receptor conformation sensor, multiple-cell measurements in HEK293 cells or membrane fragments
T2 sequence (Q9Y5Y4 1-231 limits assumed): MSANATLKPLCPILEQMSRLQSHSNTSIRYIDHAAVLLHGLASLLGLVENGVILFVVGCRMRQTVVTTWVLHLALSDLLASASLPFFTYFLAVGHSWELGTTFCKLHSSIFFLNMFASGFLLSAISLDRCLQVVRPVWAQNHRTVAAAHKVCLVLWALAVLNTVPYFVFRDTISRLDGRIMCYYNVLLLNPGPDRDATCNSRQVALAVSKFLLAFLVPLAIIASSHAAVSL
T2 sequence (Q9Y5Y4 248-308 limits assumed): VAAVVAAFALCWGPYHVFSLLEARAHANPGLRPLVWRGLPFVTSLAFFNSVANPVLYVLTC
Description: as §2, with “min).” for “min). The supernatant was discarded, the pellet containing the membrane fragments was resuspended with external buffer containing 0.1% BSA and seeded on microplates.”
Intact HEK293 cells stably expressing the EP4 receptor, IP receptor, or DP2 receptor conformation sensors were counted, adjusted to 100,000–120,000 cells per well, and seeded on poly-L-lysine coated microplates one day before measurement. […]
We used a Spark 20M plate reader (Tecan, Männedorf, Switzerland) for multiple-cell FRET measurements of intact cells or membrane fragments. The cells were measured from the bottom and the donor fluorescent protein (mT2) was excited at 430 nm. First, the cells were measured for the baseline emission ratio. […] The emitted donor fluorescence (mT2) and acceptor fluorescence (eYFP) were recorded at 485 nm and 535 nm, respectively. […]

DP2 receptor = target: T3, DP2 receptor (Homo sapiens, UniProt Q9Y5Y4); experiment: BRET-based G protein activation, wildtype DP2 receptor + Gαo biosensor in HEK293T cells; type: cell-based
T3 construct: host or cells: HEK293T (transient)
T3 sequence (Q9Y5Y4 1-395): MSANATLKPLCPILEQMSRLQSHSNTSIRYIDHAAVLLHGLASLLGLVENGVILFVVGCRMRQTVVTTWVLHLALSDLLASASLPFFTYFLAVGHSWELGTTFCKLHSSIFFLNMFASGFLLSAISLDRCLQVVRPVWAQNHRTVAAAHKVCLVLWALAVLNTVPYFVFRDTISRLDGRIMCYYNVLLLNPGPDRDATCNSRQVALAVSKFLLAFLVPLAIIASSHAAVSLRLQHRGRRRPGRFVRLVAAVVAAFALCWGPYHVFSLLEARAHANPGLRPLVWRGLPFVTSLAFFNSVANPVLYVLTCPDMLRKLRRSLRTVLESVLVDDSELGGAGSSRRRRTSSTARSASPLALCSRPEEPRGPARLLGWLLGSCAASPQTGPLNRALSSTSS
Description: Two days before BRET measurements were performed, HEK293T cells were transiently transfected with 3 µg of cDNAs containing TP receptor, ETB receptor, DP2 receptor, or S1P3 receptor and 3 µg of cDNAs containing Gβ3-T2A-cpVenus-Gγ9-IRES-Gαq-NLuc or Gβ3-T2A-cpVenus-Gγ9-IRES-Gαo1-NLuc using linear 25 kDa PEI reagent (polyethylenimine, PolyScience Inc., Hirschberg an der Bergstraße, Germany). The ratio between DNA and PEI was 1:3, and 50 µl serum-free DMEM was added per 1 µg DNA. The same amount of serum-free DMEM was also added separately to the PEI solution. DNA-DMEM and PEI-DMEM mixtures were incubated for 5 minutes, followed by incubation of the final mixture for another 10 minutes. […]
Two days before the actual measurement, HEK293T cells were transiently transfected and seeded on microplates. […] The measurements were performed using a Spark 20M plate reader (Tecan) at 37°C. Initially, the cells were measured for the baseline emission ratio. After the baseline measurement, 20 µl of external or internal buffer containing differing concentrations of either U-46619, 4-Ala ET-1, PGD,2 or S1P or external or internal buffer alone were added to the cells and measured. […] The cells were measured from the top and the donor luminescence (NLuc) was recorded at 415 to 470 nm and the acceptor luminescence (cpVenus) at 520 to 590 nm. Data were recorded using SparkControl^TM software. […]

[4] = target: ETB receptor (wildtype) (human) (UniProt P24530)
Sequence of ETB receptor (wildtype) (human) (P24530 27-442): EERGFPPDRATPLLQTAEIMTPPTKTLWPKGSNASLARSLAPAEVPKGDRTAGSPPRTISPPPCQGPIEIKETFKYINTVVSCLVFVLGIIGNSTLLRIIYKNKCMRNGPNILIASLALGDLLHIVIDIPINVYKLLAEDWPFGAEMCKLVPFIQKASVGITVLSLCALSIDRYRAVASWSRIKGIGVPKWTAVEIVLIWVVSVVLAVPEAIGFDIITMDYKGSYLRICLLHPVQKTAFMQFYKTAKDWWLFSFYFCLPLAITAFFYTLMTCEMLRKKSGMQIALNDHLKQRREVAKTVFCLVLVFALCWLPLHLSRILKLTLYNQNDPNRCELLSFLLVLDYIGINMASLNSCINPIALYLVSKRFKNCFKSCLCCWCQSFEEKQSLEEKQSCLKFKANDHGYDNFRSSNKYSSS

[5] = target: T4, TP receptor conformation sensor (Homo sapiens, UniProt P21731); experiment: FRET-based TP receptor conformation sensor, single-cell measurements in HEK293 cells; settings: 1 µM U-46619, reference 8 µM U-46619
T4 sequence (P21731 1-311 limits assumed): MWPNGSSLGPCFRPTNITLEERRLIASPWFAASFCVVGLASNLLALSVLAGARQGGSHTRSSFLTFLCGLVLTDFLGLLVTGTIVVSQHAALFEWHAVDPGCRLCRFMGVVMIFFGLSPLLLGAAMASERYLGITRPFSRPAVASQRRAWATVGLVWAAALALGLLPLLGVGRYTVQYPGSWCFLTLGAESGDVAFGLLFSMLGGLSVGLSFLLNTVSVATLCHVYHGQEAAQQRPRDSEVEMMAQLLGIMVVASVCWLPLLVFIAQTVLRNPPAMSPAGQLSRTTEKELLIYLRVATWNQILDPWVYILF

[6] = saponin-permeabilized cells with 1 µM GTP

Sequence of S1P3 receptor (Q99500 whole entry): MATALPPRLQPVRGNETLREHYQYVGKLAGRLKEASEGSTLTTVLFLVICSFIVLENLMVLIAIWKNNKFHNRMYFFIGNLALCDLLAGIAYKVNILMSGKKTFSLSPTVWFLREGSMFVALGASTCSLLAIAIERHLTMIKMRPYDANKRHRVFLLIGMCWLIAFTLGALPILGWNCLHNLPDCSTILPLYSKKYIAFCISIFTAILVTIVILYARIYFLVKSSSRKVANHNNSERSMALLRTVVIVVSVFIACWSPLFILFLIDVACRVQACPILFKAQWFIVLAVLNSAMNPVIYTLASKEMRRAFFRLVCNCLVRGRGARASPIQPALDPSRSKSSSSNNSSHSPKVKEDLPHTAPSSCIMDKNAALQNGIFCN

Compound: CCCCCCCCCCCCC/C=C/[C@@H](O)[C@@H](N)COP(=O)(O)O [S1P, Sphingosine-1-phosphate]
- EC50 (S1P3 receptor; intact HEK293T cells): 28.2 nM
- EC50 (S1P3 receptor; [6]): 0.55 nM

Compound: CCCCC[C@H](O)/C=C/[C@H]1[C@H](O)CC(=O)[C@@H]1C/C=C\CCCC(=O)O [PGE2, (Z)-7-[(1R,2R,3R)-3-hydroxy-2-[(E,3S)-3-hydroxyoct-1-enyl]-5-oxocyclopentyl]hept-5-enoic acid]
- activation at 0.3 µM ([1]; HEK293, read-out: normalized response to 10 times EC50): 53%
- response to 10 times EC50 ([1]; saponin-permeabilized cells, internal buffer supplemented with 5 mM ATP and 25 µM GTP): 56% ± 1
- response to the test concentration normalized to saturating concentration ([1]; saponin-permeabilized cells, internal buffer, 300 nM PGE2, reference 20 µM PGE2): 56% ± 1
- response to the test concentration normalized to saturating concentration [2]: about 51% ± 6

Compound: 4-Ala endothelin-1 (peptide)
- BRET-based Gαq biosensor activation in HEK293T cells, concentration-response to 4-Ala ET-1: change of agonist potency in saponin-permeabilized cells with 1 µM GTP against intact cells (Figure 4F) [4]: 15 fold

Next, values leading:

- response to the agonist ([3]; intact cells): strong response
- response to the agonist ([3]; membrane fragments): almost no response
- EC50 (DP2 receptor; intact HEK293T cells): 0.562 nM
- EC50 (DP2 receptor; [6]): 20.4 nM
Compound: CCCCC[C@H](O)/C=C/[C@H]1C(=O)C[C@H](O)[C@@H]1C/C=C\CCCC(=O)O [PGD2, (Z)-7-[(1R,2R,5S)-5-hydroxy-2-[(E,3S)-3-hydroxyoct-1-enyl]-3-oxocyclopentyl]hept-5-enoic acid]

- response to the test concentration (about 10 times EC50) normalized to saturating concentration ([5]; intact cells): full response
- response to the test concentration normalized to saturating concentration ([5]; saponin-permeabilized cells): 59% ± 1
Compound: CCCCCC(O)/C=C/C1C2CC(CO2)C1C/C=C\CCCC(=O)O (stereo not drawn) [U-46619, 9,11-dideoxy-9α,11α-methanoepoxy-prosta-5Z,13E-dien-1-oic acid]
